Assay results taken from ChEMBL document CHEMBL1201862, “PubChem BioAssay data set” (2004).
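Briefly, cells in 96-well plates were exposed to five compound concentrations for 48 h, and endpoints were estimated by linear interpolation. GI50: concentration for 50% inhibition of growth.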 Calls of active or inactive are those of the source. Cut-off read from the data, not from the text of the source: active = GI50 up to about 1.1 µM and inactive = higher.

Experiments:
Test in all cases: NCI-60 cell line screen, 48 h
[1] = system: SW-620
[2] = system: OVCAR-4
[3] = system: M14
[4] = system: UACC-62
[5] = system: HCT-116
[6] = system: TK-10
[7] = system: RXF 393
[8] = system: Hs-578T
[9] = system: IGROV-1
[10] = system: A549
[11] = system: NCI/ADR-RES
[12] = system: UO-31
[13] = system: T47D
[14] = system: SNB-19
[15] = system: SK-MEL-2
[16] = system: NCI-H226
[17] = system: CAKI-1
[18] = system: 786-0
[19] = system: RPMI-8226
[20] = system: HOP-92

SMILES	GI50 [1]	GI50 [2]	GI50 [3]	GI50 [4]	GI50 [5]	GI50 [6]	GI50 [7]	GI50 [8]	GI50 [9]	GI50 [10]	GI50 [11]	GI50 [12]	GI50 [13]	GI50 [14]	GI50 [15]	GI50 [16]	GI50 [17]	GI50 [18]	GI50 [19]	GI50 [20]
CC12CCC(=O)[C@@]1(C)CCCC2=O (stereo partly specified)	> 100 µM (inactive)	> 100 µM (inactive)	> 100 µM (inactive)	> 100 µM (inactive)	> 100 µM (inactive)	> 100 µM (inactive)	42.2 µM (inactive)	> 100 µM (inactive)	> 100 µM (inactive)	> 100 µM (inactive)	> 100 µM (inactive)	> 100 µM (inactive)	> 100 µM (inactive)	> 100 µM (inactive)	> 100 µM (inactive)	> 100 µM (inactive)	> 100 µM (inactive)	> 100 µM (inactive)	–	–
COc1cccc(C[C@H]2COC(=O)[C@]2(O)Cc2cccc(OC)c2)c1	> 100 µM (inactive)	90.4 µM (inactive)	> 100 µM (inactive)	60.1 µM (inactive)	> 100 µM (inactive)	70.6 µM (inactive)	–	> 100 µM (inactive)	> 100 µM (inactive)	> 100 µM (inactive)	66.5 µM (inactive)	> 100 µM (inactive)	18.1 µM (inactive)	> 100 µM (inactive)	> 100 µM (inactive)	> 100 µM (inactive)	18.1 µM (inactive)	> 100 µM (inactive)	93.3 µM (inactive)	79.6 µM (inactive)
COc1ccc(N2C(=O)C3c4[nH]c5ccc(C)cc5c4C4CCC(C)CC4C3C2=O)cc1 (stereo unspecified)	> 100 µM (inactive)	–	> 100 µM (inactive)	52.7 µM (inactive)	36.5 µM (inactive)	34.4 µM (inactive)	20.7 µM (inactive)	4.65 µM (inactive)	> 100 µM (inactive)	> 100 µM (inactive)	44.7 µM (inactive)	> 100 µM (inactive)	–	61.2 µM (inactive)	33.3 µM (inactive)	> 100 µM (inactive)	> 100 µM (inactive)	25.7 µM (inactive)	> 100 µM (inactive)	76.2 µM (inactive)
Clc1c(Cl)c(Cl)c2c(nnn2C2CCCO2)c1Cl (stereo unspecified)	–	18.9 µM (inactive)	39.6 µM (inactive)	44.4 µM (inactive)	39.1 µM (inactive)	65.3 µM (inactive)	44.4 µM (inactive)	25.8 µM (inactive)	34.4 µM (inactive)	24.7 µM (inactive)	31.7 µM (inactive)	–	50.9 µM (inactive)	–	26.5 µM (inactive)	34.4 µM (inactive)	31.9 µM (inactive)	45.8 µM (inactive)	–	–
Cc1nc2c(C)c3c([nH]c4ccc(Cl)cc43)c(C)c2c(O)c1C	7.52 µM (inactive)	7.24 µM (inactive)	10.9 µM (inactive)	6.44 µM (inactive)	4.29 µM (inactive)	7.33 µM (inactive)	–	15.9 µM (inactive)	5.27 µM (inactive)	2.82 µM (inactive)	8.39 µM (inactive)	3.66 µM (inactive)	4.66 µM (inactive)	15.7 µM (inactive)	65.2 µM (inactive)	4.82 µM (inactive)	5.71 µM (inactive)	3.99 µM (inactive)	3.3 µM (inactive)	9.53 µM (inactive)
NC1CSc2ccccc2NC1=O (stereo unspecified)	> 100 µM (inactive)	> 100 µM (inactive)	> 100 µM (inactive)	> 100 µM (inactive)	> 100 µM (inactive)	> 100 µM (inactive)	> 100 µM (inactive)	> 100 µM (inactive)	> 100 µM (inactive)	> 100 µM (inactive)	> 100 µM (inactive)	> 100 µM (inactive)	> 100 µM (inactive)	> 100 µM (inactive)	> 100 µM (inactive)	> 100 µM (inactive)	> 100 µM (inactive)	> 100 µM (inactive)	> 100 µM (inactive)	–
CCCCCCCC(=O)O[C@H]1[C@H]2[C@@H](CC1(C)C)C(=O)[C@]13O[C@H]1C(=O)[C@]1(CO1)[C@]23C	0.706 µM (active)	4.46 µM (inactive)	3.92 µM (inactive)	3.55 µM (inactive)	–	2.75 µM (inactive)	2.22 µM (inactive)	46 µM (inactive)	4.4 µM (inactive)	30.6 µM (inactive)	–	14.3 µM (inactive)	1.05 µM (active)	17.7 µM (inactive)	3.7 µM (inactive)	13.9 µM (inactive)	2.62 µM (inactive)	5.07 µM (inactive)	0.556 µM (active)	1.97 µM (inactive)
